Columns and labels:
[1] = tested on: Fusarium oxysporum; assay: Adjuvancy with other fungicides for other fungus, FT2; assay type: cell-based; settings: Ia 4 μg/mL + pyraclostrobin 0.01 μg/mL
Method: (§1) To evaluate the biological spectrum of activity, lamellicolic anhydride adjuvant (Ta) was tested in combination with seven fungicides against six different fungal test organisms belonging to five different genera.
(§2) Prior to evaluating the adjuvant effect of (Ia), the minimum inhibitory concentration (MIC) for each fungicide against each test organism was determined by measuring growth on agar plates containing decreasing concentrations of fungicide.
(§3) Once the MIC was determined, adjuvant testing was performed with the concentration of (Ta) fixed at 4 μg/mL and each fungicide at a concentration which inhibited growth of the fungus by 10-20%.
(§4) Fungal targets are: FT1 —Fusarium solani, FT2 —Fusarium oxysporum, FT3 —Alternaria infectorium, FT4 —Penicillium roqueforti, FT5 —Aspergillus flavus, FT6 —Cladosporium sp.
(§5) The numbers indicate fold change improvement in fungal growth inhibition relative to the fungal test organisms treated with fungicide and adjuvant vehicle alone. A value of 1 would indicate no effect on fungicidal activity, whilst a value >1 indicates improved fungicidal activity. n.t. indicates not tested.

[2] = tested on: Cladosporium sp.; assay: Adjuvancy with other fungicides for other fungus, FT6; assay type: cell-based; settings: Ia 4 μg/mL + pyrimethanil 0.006 μg/mL
Method: as §1, §2, §3, §4, §5

[3] = tested on: Fusarium solani; assay: Adjuvancy with other fungicides for other fungus, FT1; assay type: cell-based; settings: Ia 4 μg/mL + dimethomorph 12.8 μg/mL
Method: as §1, §2, §3, §4, §5

[4] = tested on: B. cinerea; assay: Adjuvancy with other fungicides for B. cinerea; assay type: cell-based, Botrytis cinerea
Method: Botrytis cinerea (ATCC 90479) was cultured on potato dextrose agar (PDA) for 7 days with diurnal UV cycles (12 h UV light and 12 h dark). Spores were harvested in a buffered, sterile saline solution (0.9% saline water with 1% Tween 80) and counted using a haemocytometer. The spore suspension was adjusted to a final concentration of 8.5×10^6 spores/mL to create a standardised inoculum. To prepare hyphal fragments for adjuvant testing, 8.5×10^4 spores were used to inoculate 10 mL of potato dextrose broth in a 150×25 mm tube. The tube was incubated at 220 RPM, 22° C. for 48 hours. To create hyphal fragments from the culture, the culture was transferred to a 50 mL plastic conical tube containing approximately 20 sterile 5 mm diameter glass beads and vortexed for 5 min. After vortexing the tube was allowed to stand for 5 min to allow large mycelial clumps to settle and then the top layer containing hyphal fragments was removed and used as inocula for growth inhibition assays. Fungicides and adjuvants were dissolved in methanol and added to molten PDA (˜50° C.) and then the agar was distributed in the wells of 12 well multiwell plates (1 mL/well). The plates were cooled to room temperature and 10 μL of hyphal inoculum was added to the centre of each well. The plates were incubated at 22° C. for 48 hours and then the colony diameter was measured using a digital caliper. The biological growth control consisted of hyphae and vehicle (0.07% methanol), the negative control was media and vehicle (0.07% methanol). To expand the functional characterisation of the lamellicolic anhydride adjuvant (Ia) was tested in combination with seven fungicides belonging to six different fungicide groups as classified by the Fungicide Resistance Action Committee (FRAC Code List 2018). Numbers indicate fold change improvement in fungal growth inhibition relative to the fungal test organisms treated with fungicide and adjuvant vehicle alone. n.t. indicates not tested.

[5] = tested on: Aspergillus flavus; assay: Adjuvancy with other fungicides for other fungus, FT5; assay type: cell-based
Method: as §1, §2, §3, §4, §5

[6] = tested on: Alternaria infectorium; assay: Adjuvancy with other fungicides for other fungus, FT3; assay type: cell-based
Method: as §1, §2, §3, §4, §5

[7] = tested on: Penicillium roqueforti; assay: Adjuvancy with other fungicides for other fungus, FT4; assay type: cell-based
Method: as §1, §2, §3, §4, §5

[8] = tested on: Botrytis cinerea (ATCC 90479); assay: Adjuvancy with pyraclostrobin, agar growth inhibition of hyphal inoculum; assay type: cell-based; settings: for Fold Change in Growth Inhibition: vs pyraclostrobin alone, 48 hours, 22° C.
Method: Percent Inhibition—The percent inhibition will be understood to represent the amount the fungicide and/or adjuvant inhibits the visible growth of the microorganism after 48 hours incubation at 22° C. relative to vehicle treated controls. This is calculated using the following formula: […]
Fold Change—The fold change is a measure of the adjuvant/fungicide combination in inhibiting a microorganism compared to the fungicide alone. This indicates how the adjuvant performs relative to the fungicide alone. This is calculated using the following formula: […]
Botrytis cinerea (ATCC 90479) was cultured on potato dextrose agar (PDA) for 7 days with diurnal UV cycles (12 h UV light and 12 h dark). Spores were harvested in a buffered, sterile saline solution (0.9% saline water with 1% Tween 80) and counted using a haemocytometer. The spore suspension was adjusted to a final concentration of 8.5×10^6 spores/mL to create a standardised inoculum.
To prepare hyphal fragments for adjuvant testing, 8.5×10^4 spores were used to inoculate 10 mL of potato dextrose broth in a 150×25 mm tube. The tube was incubated at 220 RPM, 22° C. for 48 hours. To create hyphal fragments from the culture, the culture was transferred to a 50 mL plastic conical tube containing approximately 20 sterile 5 mm diameter glass beads and vortexed for 5 min. After vortexing the tube was allowed to stand for 5 min to allow large mycelial clumps to settle and then the top layer containing hyphal fragments was removed and used as inocula for growth inhibition assays.
Fungicides and adjuvants were dissolved in methanol and added to molten PDA (˜50° C.) and then the agar was distributed in the wells of 12 well multiwell plates (1 mL/well). The plates were cooled to room temperature and 10 μL of hyphal inoculum was added to the centre of each well. The plates were incubated at 22° C. for 48 hours and then the colony diameter was measured using a digital caliper. The biological growth control consisted of hyphae and vehicle (0.07% methanol), the negative control was media and vehicle (0.07% methanol).

[9] = Ia 4 μg/mL + iprodione 0.0015 μg/mL
[10] = Ia 4 μg/mL + mancozeb 0.2 μg/mL
[11] = Ia 4 μg/mL + pyraclostrobin 0.001 μg/mL

Cc1cc(O)c2c3c(c(O)cc(O)c13)C(=O)OC2=O [Lam 261 (Ia), Lamellicolic anhydride]
fold change improvement in fungal growth inhibition [1]: 1.63
fold change improvement in fungal growth inhibition [2]: 1.67
fold change improvement in fungal growth inhibition [3]: 1.63
Fold Change in Growth Inhibition ([4]; Lam 261 (Ia) 1 μg/mL + benomyl 0.0015 μg/mL): 16.45
Fold Change in Growth Inhibition ([4]; Lam 261 (Ia) 1 μg/mL + captan 0.008 μg/mL): 17.25
Fold Change in Growth Inhibition ([4]; Lam 261 (Ia) 1 μg/mL + captan 0.04 μg/mL): 27.32
Fold Change in Growth Inhibition ([4]; Lam 261 (Ia) 1 μg/mL + dimethomorph 0.8 μg/mL): 17.72
Fold Change in Growth Inhibition ([4]; Lam 261 (Ia) 1 μg/mL + mancozeb 0.1 μg/mL): 1.89
Fold Change in Growth Inhibition ([4]; Lam 261 (Ia) 1 μg/mL + mancozeb 0.2 μg/mL): 2.44
Fold Change in Growth Inhibition ([4]; Lam 261 (Ia) 1 μg/mL + metalaxyl 0.8 μg/mL): 31.72
Fold Change in Growth Inhibition ([4]; Lam 261 (Ia) 1 μg/mL + metalaxyl 1.6 μg/mL): 27.22
Fold Change in Growth Inhibition ([4]; Lam 261 (Ia) 1 μg/mL + prothioconazole 1.0 μg/mL): 5.53
Fold Change in Growth Inhibition ([4]; Lam 261 (Ia) 1 μg/mL + tebuconazole 0.00018 μg/mL): 15.13
Fold Change in Growth Inhibition ([4]; Lam 261 (Ia) 1 μg/mL + tebuconazole 0.00075 μg/mL): 9.37
Fold Change in Growth Inhibition ([4]; Lam 261 (Ia) 1 μg/mL, benomyl 0 μg/mL (adjuvant alone)): 1.00
Fold Change in Growth Inhibition ([4]; Lam 261 (Ia) 1 μg/mL, captan 0 μg/mL (adjuvant alone)): 1.00
Fold Change in Growth Inhibition ([4]; Lam 261 (Ia) 1 μg/mL, dimethomorph 0 μg/mL (adjuvant alone)): 1.00
Fold Change in Growth Inhibition ([4]; Lam 261 (Ia) 1 μg/mL, mancozeb 0 μg/mL (adjuvant alone)): 1.00
Fold Change in Growth Inhibition ([4]; Lam 261 (Ia) 1 μg/mL, metalaxyl 0 μg/mL (adjuvant alone)): 1.00
Fold Change in Growth Inhibition ([4]; Lam 261 (Ia) 1 μg/mL, prothioconazole 0 μg/mL (adjuvant alone)): 1.00
Fold Change in Growth Inhibition ([4]; Lam 261 (Ia) 1 μg/mL, tebuconazole 0 μg/mL (adjuvant alone)): 1.00
Fold Change in Growth Inhibition ([4]; Lam 261 (Ia) 2 μg/mL + benomyl 0.0015 μg/mL): 20.43
Fold Change in Growth Inhibition ([4]; Lam 261 (Ia) 2 μg/mL + captan 0.008 μg/mL): 32.35
Fold Change in Growth Inhibition ([4]; Lam 261 (Ia) 2 μg/mL + captan 0.04 μg/mL): 30.95
Fold Change in Growth Inhibition ([4]; Lam 261 (Ia) 2 μg/mL + dimethomorph 0.4 μg/mL): 31.0
Fold Change in Growth Inhibition ([4]; Lam 261 (Ia) 2 μg/mL + dimethomorph 0.8 μg/mL): 16.06
Fold Change in Growth Inhibition ([4]; Lam 261 (Ia) 2 μg/mL + mancozeb 0.1 μg/mL): 3.06
Fold Change in Growth Inhibition ([4]; Lam 261 (Ia) 2 μg/mL + mancozeb 0.2 μg/mL): 2.83
Fold Change in Growth Inhibition ([4]; Lam 261 (Ia) 2 μg/mL + metalaxyl 0.8 μg/mL): 45.13
Fold Change in Growth Inhibition ([4]; Lam 261 (Ia) 2 μg/mL + metalaxyl 1.6 μg/mL): 32.46
Fold Change in Growth Inhibition ([4]; Lam 261 (Ia) 2 μg/mL + prothioconazole 1.0 μg/mL): 26.91
Fold Change in Growth Inhibition ([4]; Lam 261 (Ia) 2 μg/mL + tebuconazole 0.00018 μg/mL): 21.61
Fold Change in Growth Inhibition ([4]; Lam 261 (Ia) 2 μg/mL + tebuconazole 0.00075 μg/mL): 9.79
Fold Change in Growth Inhibition ([4]; Lam 261 (Ia) 2 μg/mL, benomyl 0 μg/mL (adjuvant alone)): 1.00
Fold Change in Growth Inhibition ([4]; Lam 261 (Ia) 2 μg/mL, captan 0 μg/mL (adjuvant alone)): 1.00
Fold Change in Growth Inhibition ([4]; Lam 261 (Ia) 2 μg/mL, dimethomorph 0 μg/mL (adjuvant alone)): 1.00
Fold Change in Growth Inhibition ([4]; Lam 261 (Ia) 2 μg/mL, mancozeb 0 μg/mL (adjuvant alone)): 1.00
Fold Change in Growth Inhibition ([4]; Lam 261 (Ia) 2 μg/mL, metalaxyl 0 μg/mL (adjuvant alone)): 1.00
Fold Change in Growth Inhibition ([4]; Lam 261 (Ia) 2 μg/mL, prothioconazole 0 μg/mL (adjuvant alone)): 1.00
Fold Change in Growth Inhibition ([4]; Lam 261 (Ia) 2 μg/mL, tebuconazole 0 μg/mL (adjuvant alone)): 1.00
fold change improvement in fungal growth inhibition ([5]; Ia 4 μg/mL + dimethomorph 12.8 μg/mL): 1.27
fold change improvement in fungal growth inhibition [5, 9]: 1.72
fold change improvement in fungal growth inhibition [5, 10]: 2.01
fold change improvement in fungal growth inhibition ([5]; Ia 4 μg/mL + prothioconazole 0.012 μg/mL): 1.28
fold change improvement in fungal growth inhibition ([6]; Ia 4 μg/mL + dimethomorph 0.2 μg/mL): 1.25
fold change improvement in fungal growth inhibition ([6]; Ia 4 μg/mL + mancozeb 0.1 μg/mL): 2.45
fold change improvement in fungal growth inhibition ([6]; Ia 4 μg/mL + prothioconazole 0.006 μg/mL): 1.50
fold change improvement in fungal growth inhibition [6, 11]: 1.18
fold change improvement in fungal growth inhibition ([7]; Ia 4 μg/mL + captan 0.04 μg/mL): 1.17
fold change improvement in fungal growth inhibition ([7]; Ia 4 μg/mL + dimethomorph 0.8 μg/mL): 1.85
fold change improvement in fungal growth inhibition [7, 9]: 1.65
fold change improvement in fungal growth inhibition [7, 10]: 1.63
fold change improvement in fungal growth inhibition ([7]; Ia 4 μg/mL + prothioconazole 0.00375 μg/mL): 1.52
fold change improvement in fungal growth inhibition [7, 11]: 1.27
fold change improvement in fungal growth inhibition ([7]; Ia 4 μg/mL + pyrimethanil 0.02 μg/mL): 1.31

C/C=C/[C@@H]1[C@H]2C[C@@H](C)CC[C@@H]2C(C)=C[C@H]1C(=O)c1c(O)c(-c2ccc(O)cc2)c[nH]c1=O [Ilicicolin H (A), ilicicolin H]
Fold Change in Growth Inhibition ([8]; adjuvant 1.56 μg/mL + pyraclostrobin 0.1 μg/mL): 3.32
Fold Change in Growth Inhibition ([8]; adjuvant 1.56 μg/mL + pyraclostrobin 0.2 μg/mL): 1.93
Fold Change in Growth Inhibition ([8]; adjuvant 1.56 μg/mL + pyraclostrobin 0.4 μg/mL): 1.36
Fold Change in Growth Inhibition ([8]; adjuvant 1.56 μg/mL + pyraclostrobin 0.8 μg/mL): 1.04
Fold Change in Growth Inhibition ([8]; adjuvant 3.13 μg/mL + pyraclostrobin 0.1 μg/mL): 3.51
Fold Change in Growth Inhibition ([8]; adjuvant 3.13 μg/mL + pyraclostrobin 0.2 μg/mL): 2.43
Fold Change in Growth Inhibition ([8]; adjuvant 3.13 μg/mL + pyraclostrobin 0.4 μg/mL): 1.35
Fold Change in Growth Inhibition ([8]; adjuvant 3.13 μg/mL + pyraclostrobin 0.8 μg/mL): 1.21
Fold Change in Growth Inhibition ([8]; adjuvant 6.25 μg/mL + pyraclostrobin 0.1 μg/mL): 3.62
Fold Change in Growth Inhibition ([8]; adjuvant 6.25 μg/mL + pyraclostrobin 0.2 μg/mL): 1.88
Fold Change in Growth Inhibition ([8]; adjuvant 6.25 μg/mL + pyraclostrobin 0.4 μg/mL): 1.26
Fold Change in Growth Inhibition ([8]; adjuvant 6.25 μg/mL + pyraclostrobin 0.8 μg/mL): 0.96
inherent fungicidal activity on their own ([8]; adjuvant alone, at any of the concentrations tested): did not demonstrate any inherent fungicidal activity

— patent publication US20230120044A1, “AGROCHEMICAL ADJUVANTS” (Croda International Plc, priority 2020, published 2023)
